Columns and labels:
[1] = tested on: U2932 (human diffuse large B-cell lymphoma cells); experiment: Cell proliferation assay, U2932; type: cell-based; conditions: U2932, 72 h
Experimental: • Experimental and analytical method: cells were inoculated into a 96-well cell culture plate with a lid at a maximum concentration of 10 μM for a test compound, and diluted in three folds to a series of test concentrations, and cells were incubated at 37° C., 5% CO2 for 72 h. The concentration of DMSO was 0.5%, 100 μl of medium was taken from each well. 100 μl of reagent (Celltitute Glo Assay Kit) was added to each well, and a flat plate was shaken on a plate shaker (protected from light) for 2 min. A culture plate was incubated (protected from light) at room temperature for 30 min. Chemiluminescence values were recorded by a multi-plate plate reader, and the experimental results were as follows:
U937 (histiocytic lymphoma cells), OCI-LY3 (human diffuse large B-cell lymphoma cells), U2932 (human diffuse large B-cell lymphoma cells), and HT cells (human mixed lymphoma cells) were analyzed in the table for experimental analysis of cell proliferation.

APOE−/− mutant B6J mice = experiment: Cardiovascular inflammation of APOE mutant mice fed with high-fat diets; type: in vivo, mouse; conditions: oral gavage once every 2 days, high-fat diets 16 weeks
Excerpt: Experimental and analytical method: 6-week-old male APOE−/− mutant B6J mice and WT B6J mice were purchased and acclimatized in a feeding room for 2 weeks. When the mice were 8 weeks old, except for a Vehicle group and a WT group, the rest of the groups were given high-fat diets (Research Diets, D12492). When the mice were 9 weeks old, the Control group was given a 10% cyclodextrin solution, while the rest of the administration groups began to be grouped and administrated with different small molecule compounds (Embodiment 13B, Embodiment 33, Embodiment 36 and Embodiment 37) by oral gavage, at a frequency of once every 2 days. After being fed with high-fat diets for 16 weeks, the APOE mice were sacrificed and aortic arches were taken and dissected.

SOD^G93A transgenic mice [2] = experiment: Gait analysis of SOD^G93A mice; conditions: 40 mpk from Day 60, tested at Week 19; vs model group
Excerpt: Gait analysis was a behavioral analysis method that tested motor dysfunction. The mice with motor dysfunction would have a significant reduction in stride length. Our experiments were divided into two groups, i.e., a model group and an administration group.

[3] = tested on: TDP43^A315T transgenic mice; conditions: 40 mpk from Day 60
Excerpt: Our experiments were divided into two groups, i.e., a model group and an administration group.

[4] = tested on: transgenic AD rat model (human APP mutant protein, SD rats); experiment: Water maze test of AD rats; conditions: administered from 7 to 13 months of age; vs model group
male SD rats, TBI model = experiment: Acute traumatic brain injury (TBI) rat model; type: in vivo; conditions: 80 mpk once a day, 7 days; vs solvent control (P<0.05)
Experimental: • Experimental and analytical method: male SD rats were used in this experiment to establish a TBI rat model, which was randomly divided into: a solvent control group (8 rats), a test product Embodiment 13B (80 mpk, 10 rats), and a test product Embodiment 26 (80 mpk, 9 rats). After TBI surgery, drugs were administered by gavage once a day for 7 consecutive days.

SOD^G93A transgenic mice [5] = experiment: Open field test of SOD^G93A mice; conditions: 40 mpk from Day 60, Week 14 to Week 19; vs model group
Experimental: A mean moving speed was calculated in an open field, which is a behavioral analysis method to test motor dysfunction. The mice with motor dysfunction would have a significant reduction in mean moving speed. Our experiments were divided into three groups, i.e., a WT group, a model group and an administration group.

[6] = tested on: rats with ulcerative colitis induced by TNBS; experiment: TNBS rats enteritis model; type: in vivo, rat; conditions: 80 mpk oral gavage once a day, 7 days
Experimental: All rats except the normal control group were fasted for solids (not liquids) for 24 h. After being anesthetized with isoflurane, the rats were transrectally infused with a TNBS ethanol solution (18 mg TNBS/mouse) at 0.5 mL/mouse through a latex hose, the length of the hose into the rectum was about 8 cm, an anesthesia state was continued after the hose was withdrawn, and the rats were kept in an inclined state for 15 min. The rats in the normal control group were not stimulated with rectal cannula. After the animals were awake, they were randomly divided into groups, which then began to be administrated with drugs (marked as D1). The blank group and the model group were administrated with the same amount of vehicle by oral gavage once a day for 7 consecutive days (D1-D7). The animal's status and feces (loose stools or bloody stools) were observed every day. The body weights were monitored. On the next day after the last administration (D8), the animals were deeply anesthetized with CO2, sacrificed and dissected. The entire colon tissues were harvested. The colon content was washed with normal saline after dissection along the mesenteric side. The body weights were measured and the colon lengths were measured. A ulcer surface was measured by Image J software. The general conditions of the colons were observed and photographed. Some of diseased tissues were fixed with formalin, and subjected to histopathological observation by HE staining. • Results: (1) the effects on general conditions of TNBS colitis mice were shown in FIG. 46a: the rats had loose stool on the next day of TNBS modeling; and the modeled mice had symptoms of reduced diet, tiredness, emaciation, erect hair, and dull hair. The feces of some rats were improved in the later stage of administration, but some rats still maintained loose stool until the end of the experiment, and some rats had obvious abdominal distension in the later stage of the experiment.

hippocampal neurons = experiment: L-cysteine-induced neuronal excitotoxicity; type: cell-based, SD rats; conditions: compound 1 μM, 24 h before inducer
How it was run: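 Primary E18-19 SD rat hippocampal neurons at DIV19 pretreated 24 h with compound (final 1 μM; AP5 100 μM positive control, DMSO negative), then exposed to L-cystine 400 μM plus NaHCO3 10 mM for 18 h. Hoechst staining; total and dead neurons counted in 6 random fields per well.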

## C[C@H]1CC[C@@]2(OC1)O[C@H]1C[C@@H]3[C@H](CC[C@H]4[C@H]3CC[C@@H]3C[C@H](NC(=O)CC(=O)N5CCN(CCN(C)C)CC5)CC[C@@]34C)[C@H]1[C@@H]2C [Embodiment 13b]
[1]
  IC50: 720 nM
APOE−/− mutant B6J mice
  inflammatory factors IL10, IL-1β and KC/GRO in aortic vascular epithelial tissue: most significant
SOD^G93A transgenic mice [2]
  stride length: much larger
[3]
  survival time (in words): could effectively prolong the survival time
[3]; model group Week 13
  start of significant body weight decrease: 16 Week
[3]; model group about Day 120
  death median: 135 days
[3]; model group about Day 140
  all died: 150 days
[3]; model group from Day 90
  first deaths: > 100 days
[4]
  average distance from the platform: improved behavioral performances
  dwell time in the target quadrant: improved behavioral performances
  number of platform shuttles: improved behavioral performances
Male SD rats, TBI model
  early brain apoptosis rates: significantly lower
  total apoptosis rates: significantly lower
SOD^G93A transgenic mice [5]
  mean moving rate in open field: much larger
[6]
  colon ulcer area: more significant
  colon weight per unit length (colon weight/colon length): more significant
Hippocampal neurons
  protective effects on L-Cystine (400 μM)-induced neuronal excitotoxicity: protective effects

— patent publication US20250213593A1, “Use of Derivatives based on Sarsasapogenin Structure and Pharmaceutical Compositions thereof” (BEIJING PHYTOVENT PHARMACEUTICAL TECHNOLOGY CO., LTD., priority 2022, published 2025)
